Data reported in patent US20160089343A1 (LSU Health Sciences Center Shreveport, priority 2014, published 2016).
“Also recorded” adds a separate entry of the source.

What was measured:
[1] = tested on: HNSCC cell lines; assay: HNSCC cell lines screened for sensitivity to curcumin (cell proliferation); type: cell-based; details: for sensitivity of a variety of cell lines: spread of sensitivity across cell lines
[2] = tested on: normal fibroblast cell line CCL110; assay: Cell proliferation in the normal fibroblast cell line; type: cell-based; details: CCL110, in vitro
[3] = tested on: NFκB and Akt/mTOR pathways in PCI15a cells; assay: Modulation of NFκB and Akt/mTOR pathways, PCI15a cells; type: cell-based; details: 10 μM curcumin
[4] = tested on: NFκB and Akt/mTOR pathways in SCC40 cells; assay: Modulation of NFκB and Akt/mTOR pathways, SCC40 cells; type: cell-based; details: SCC40, 10 μM curcumin
[5] = tested on: Akt/mTOR pathway in SCC066 cells; assay: Modulation of NFκB and Akt/mTOR pathways, SCC066 cells; type: cell-based; details: SCC066, 10 μM curcumin, 24 and 48 hours
[6] = tested on: pNFκB or Akt/mTOR in CCL110 cells; assay: Modulation of NFκB and Akt/mTOR pathways, CCL110 normal fibroblasts; type: cell-based; details: CCL110, 10 μM curcumin, 24 and 48 hours
[7] = tested on: pAkt and pS6 in SCC40 xenografts; assay: pAkt and pS6 in SCC40 xenografts of curcumin-treated mice; type: in vivo; details: mice with SCC40 xenografts treated with curcumin
[8] = tested on: tumor cells; assay: Chemoprevention model: pre-treatment before injecting tumor cells, tumor volume; type: in vivo, Balb/c nu/nu mice; details: from 4 days before tumor cells, about three weeks
Protocol: Balb/c nu/nu mice were randomized into treatment groups. […] Tumors were measured over approximately three weeks. […] ANOVA analysis. […] This also points to its role as a chemopreventive agent rather than a therapeutic agent.

[9] = tested on: AKT/mTOR pathway, FGF-2 and MMP-9 in HNSCC cell lines; assay: Biomarkers in HNSCC cell lines (earlier work); type: cell-based
Excerpt: Also, identifying a consistent biomarker that can be validated in chemoprevention trials is critical, as the occurrence of cancer as an end point could take years. […] Acquiring the angiogenic phenotype by premalignant cells is the a critical step in carcinogenesis and FGF-2 is one of the most important angiogenic markers. Oral dysplasias are characterized by deregulations (DNA amplification and homozygous deletion) of multiple components of the FGF signaling network. […] GM-CSF promotes proliferation of endothelial progenitor cells, induces endothelial capillary formation via stimulation of MMP expression and activates JAK2/STAT-3 pathway. IL-17, besides its function as immune marker, is also implicated in stimulating angiogenesis.

[10] = tested on: TPA-induced tumors on mouse skin; details: topical 10 μmol curcumin twice weekly; cited from earlier work
[11] = tested on: DMBA-induced oral tumors; details: topical 10 μmol curcumin to cheek pouch 3 times/week for 24 weeks; cited from earlier work
[12] = tested on: prostate cancer xenograft; details: p.o. gavage 5 mg/day, 5 days/week for 4 weeks; cited from earlier work
[13] = tested on: tumor formation; assay: Model of minimal residual disease; type: in vivo
[14] = tested on: mTOR pathway markers; assay: Phase 2 biomarker exploratory trial in HNSCC patients; type: in vivo, human
Excerpt: Criteria #1) Biomarker expression in normal tissue should be different from that in high risk tissue. In FIG. 2 we present an analysis of cancer (lanes 5, 6, 11, and 12) and non-cancer (patients with sleep apnea) (lanes 1-4 and 7-10) patient samples. The cancer samples include tumors (T) and histologically tumor-free margins (M). […] Criteria #2) Biomarkers can be detected in small tissue specimens. In our studies we have successfully detected by western blots and even by IHC the various Akt/mTOR markers on samples often as small as 5 mm. Criteria #3) Biomarkers can be expressed in a quantity or pattern that can be correlated with the stage of carcinogenesis.

SMILES: COc1cc(/C=C/C(=O)CC(=O)/C=C/c2ccc(O)c(OC)c2)ccc1O [curcumin]
- growth inhibitory effect ([1]; all 10 HNSCC cell lines tested to date): growth inhibitory effects
- effect on cell proliferation ([1]; all HNSCC cell lines, 10 μM curcumin): inhibition of cell proliferation
- anti-proliferative effect ([1]; panel of nine HNSCC cell lines, earlier work): robust anti-proliferative effects
- sensitivity of a variety of cell lines [1]: consistently sensitive
- growth inhibitory effect ([1]; three HNSCC cell lines (PCI15a, SCC40, SCC066), 10 μM, 48 hours): significant growth inhibitory effects
- curcumin concentration giving consistent inhibition of cell proliferation ([1]; variety of HNSCC cell lines, in vitro): less than 10 μM
- dose required to see effects in normal fibroblasts [2]: 20 to 40 µM
- pNFκB ([3]; 24 and 48 hours): no change
- pAkt ([3]; 48 hours): down-regulated
- pS6 downstream of mTOR ([3]; 48 hours): down-regulated
- Akt/mTOR pathway ([4]; 24 and 48 hours): no change
- pNFκB ([4]; 48 hours): down-regulation
- Akt/mTOR pathway [5]: did not show any modulation
- pNFκB or Akt/mTOR [6]: no decrease
- pAkt in xenografts [7]: significant decrease
- pS6 in xenografts [7]: significant decrease
- tumor volume versus control (vehicle treated) ([8]; 10 mg curcumin): no significant difference
- tumor volume versus control (vehicle treated) ([8]; 15 mg curcumin, p=0.007, mixed ANOVA): statistically significant difference
- FGF-2 expression in HNSCC cells ([9]; p<0.001): downregulation; also recorded: significant inhibition
- AKT/mTOR pathway in HNSCC cell lines ([9]; panel of nine HNSCC cell lines): inhibition
- MMP-9 in HNSCC cell lines ([9]; panel of nine HNSCC cell lines): downregulation
- inhibition of the number of tumors per mouse [10]: 98%
- reduction of the number of DMBA-induced oral tumors [11]: ~40%
- inhibition of growth of prostate cancer xenograft [12]: ~50%

SMILES: CO[C@H]1C[C@@H]2CC[C@@H](C)[C@@](O)(O2)C(=O)C(=O)N2CCCC[C@H]2C(=O)O[C@H]([C@H](C)C[C@@H]2CC[C@@H](OCCO)[C@H](OC)C2)CC(=O)[C@H](C)/C=C(\C)[C@@H](O)[C@@H](OC)C(=O)[C@H](C)C[C@H](C)/C=C/C=C/C=C/1C [RAD001, everolimus]
- sensitivity of a variety of cell lines [1]: wide range of sensitivity

SMILES: CO[C@H]1C[C@@H]2CC[C@@H](C)[C@@](O)(O2)C(=O)C(=O)N2CCCC[C@H]2C(=O)O[C@H]([C@H](C)C[C@@H]2CC[C@@H](OC(=O)C(C)(CO)CO)[C@H](OC)C2)CC(=O)[C@H](C)/C=C(\C)[C@@H](O)[C@@H](OC)C(=O)[C@H](C)C[C@H](C)/C=C/C=C/C=C/1C [CCI-779, temsirolimus]
- survival [13]: improve survival
- tumor formation [13]: inhibit tumor formation
- mTOR pathway markers in tumors and PBMCs [14]: modulation of these markers
